According to patent publication US7772241B2, “Variolin derivatives and their use as antitumor agents” (Pharma Mar S.A., priority 2001, dated 2010):
Like-named read-outs stand apart in the source and are kept apart here.

Assays:
SK-OV-3 = experiment: Inhibition of cells growth by colorimetric (SRB) assay, SK-OV-3; conditions: for GI50 / CC50: Homo sapiens, SK-OV-3, 48 h; for GI50: read-out: GI50 SKOV-3, SRB assay, 48 hours exposure; for TGI SKOV-3: SRB assay, 48 hours exposure
In short: (§1)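 Read-out is sulforhodamine B protein stain (OD 490 nm) after cold TCA fixation, following 48 h continuous exposure to samples spanning 10 to 10^−8 μg/ml.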

K-562 = experiment: Inhibition of cells growth by colorimetric (SRB) assay, K-562; conditions: for GI50 / CC50: Homo sapiens, K562, 48 h; for GI50: read-out: GI50 K-562, SRB assay, 48 hours exposure; for TGI K-562: SRB assay, 48 hours exposure
In short: as §1

LoVo-Dox = experiment: Inhibition of cells growth by colorimetric (SRB) assay, LoVo-Dox
In short: as §1

HT-29 = experiment: Inhibition of cells growth by colorimetric (SRB) assay, HT-29
In short: as §1

IGROV-1 = experiment: Inhibition of cells growth by colorimetric (SRB) assay, IGROV-1; conditions: for GI50 / CC50: Homo sapiens, IGROV-1, 48 h; for GI50: read-out: GI50 IGROV, SRB assay, 48 hours exposure; for TGI IGROV: SRB assay, 48 hours exposure
In short: as §1

DU-145 = experiment: Inhibition of cells growth by colorimetric (SRB) assay, DU-145; conditions: for GI50 / CC50: Homo sapiens, DU-145, 48 h; for GI50: read-out: GI50 DU-145, SRB assay, 48 hours exposure; for TGI DU-145: SRB assay, 48 hours exposure
In short: as §1

IGROV-ET = experiment: Inhibition of cells growth by colorimetric (SRB) assay, IGROV-ET; conditions: for GI50 / CC50: Homo sapiens, 48 h; for GI50: read-out: GI50 IGROV-ET, SRB assay, 48 hours exposure; for TGI IGROV-ET: SRB assay, 48 hours exposure
In short: as §1

SK-BR-3 = experiment: Inhibition of cells growth by colorimetric (SRB) assay, SK-BR-3; conditions: for GI50 / CC50: Homo sapiens, SK-BR-3, 48 h; for GI50: read-out: GI50 SK-BR-3, SRB assay, 48 hours exposure; for TGI SK-BR-3: SRB assay, 48 hours exposure
In short: as §1

LoVo = experiment: Inhibition of cells growth by colorimetric (SRB) assay, LoVo
In short: as §1

LNCaP = experiment: Inhibition of cells growth by colorimetric (SRB) assay, LNCaP; conditions: for GI50 / CC50: Homo sapiens, LNCaP, 48 h; for GI50: read-out: GI50 LN-caP, SRB assay, 48 hours exposure; for TGI LN-caP: SRB assay, 48 hours exposure
In short: as §1

PANC-1 = experiment: Inhibition of cells growth by colorimetric (SRB) assay, PANC-1; conditions: for GI50: read-out: GI50 PANC-1, SRB assay, 48 hours exposure
In short: as §1

SK-MEL-28 = experiment: Inhibition of cells growth by colorimetric (SRB) assay, SK-MEL-28; conditions: for GI50 / CC50: Homo sapiens, SK-MEL-28, 48 h; for GI50: read-out: GI50 MEL-28, SRB assay, 48 hours exposure; for TGI MEL-28: SRB assay, 48 hours exposure
In short: as §1

A-549 = experiment: Inhibition of cells growth by colorimetric (SRB) assay, A-549; conditions: for GI50 / CC50: Homo sapiens, A549, 48 h; for GI50: read-out: GI50 A-549, SRB assay, 48 hours exposure; for TGI A-549: SRB assay, 48 hours exposure
In short: as §1

[1] = Inhibition of cells growth by colorimetric (SRB) assay, HMEC1
HMEC1 = experiment: as above; conditions: for GI50: Homo sapiens, HMEC-1, 48 h, read-out: GI50 H-MEC-1, SRB assay, 48 hours exposure; for TGI H-MEC-1: SRB assay, 48 hours exposure
[2] = read-out: LC50 SKOV-3, SRB assay, 48 hours exposure
[3] = read-out: LC50 K-562, SRB assay, 48 hours exposure
[4] = read-out: LC50 IGROV, SRB assay, 48 hours exposure
[5] = read-out: LC50 DU-145, SRB assay, 48 hours exposure
[6] = read-out: LC50 IGROV-ET, SRB assay, 48 hours exposure
[7] = read-out: LC50 SK-BR-3, SRB assay, 48 hours exposure
[8] = read-out: LC50 LN-caP, SRB assay, 48 hours exposure
[9] = read-out: LC50 MEL-28, SRB assay, 48 hours exposure
[10] = read-out: LC50 A-549, SRB assay, 48 hours exposure
[11] = human, HMEC1 cells, LC50 H-MEC-1, SRB assay, 48 hours exposure

Cl.Nc1nccc(-c2c3cccnc3n3c(N)nccc23)n1 [Compound 51]
GI50 (SK-OV-3): 0.146 µM | CC50 (SK-OV-3; [2]): 28.6 µM | TGI SKOV-3 (SK-OV-3): 2.15E−06 | GI50 (K-562): 0.311 µM | CC50 (K-562; [3]): 5.17 µM | TGI K-562 (K-562): 4.03E−07 | GI50 (LoVo-Dox; Homo sapiens, 48 h, read-out: GI50 LOVO-DOX, SRB assay, 48 hours exposure): 0.078 µM | CC50 (LoVo-Dox; Homo sapiens, 48 h, read-out: LC50 LOVO-DOX, SRB assay, 48 hours exposure): 17.9 µM | TGI LOVO-DOX (LoVo-Dox; SRB assay, 48 hours exposure): 2.86E−07 | GI50 (HT-29; Homo sapiens, HT-29, 48 h, read-out: GI50 HT-29, SRB assay, 48 hours exposure): 0.101 µM | CC50 (HT-29; Homo sapiens, HT-29, 48 h, read-out: LC50 HT-29, SRB assay, 48 hours exposure): 28.6 µM | TGI HT-29 (HT-29; SRB assay, 48 hours exposure): 2.86E−07 | GI50 (IGROV-1): 0.0851 µM | CC50 (IGROV-1; [4]): 2.12 µM | TGI IGROV (IGROV-1): 3.28E−07 | GI50 (DU-145): 0.0654 µM | CC50 (DU-145; [5]): 2.7 µM | TGI DU-145 (DU-145): 1.48E−07 | GI50 (IGROV-ET): 0.0748 µM | CC50 (IGROV-ET; [6]): 18.6 µM | TGI IGROV-ET (IGROV-ET): 2.25E−07 | GI50 (SK-BR-3): 0.0591 µM | CC50 (SK-BR-3; [7]): 0.554 µM | TGI SK-BR-3 (SK-BR-3): 1.42E−07 | GI50 (LoVo; Homo sapiens, LoVo, 48 h, read-out: GI50 LOVO, SRB assay, 48 hours exposure): 0.0774 µM | CC50 (LoVo; Homo sapiens, LoVo, 48 h, read-out: LC50 LOVO, SRB assay, 48 hours exposure): 16 µM | TGI LOVO (LoVo; SRB assay, 48 hours exposure): 1.84E−07 | GI50 (LNCaP): 0.0737 µM | CC50 (LNCaP; [8]): 0.286 µM | TGI LN-caP (LNCaP): 1.27E−07 | GI50 (PANC-1; Homo sapiens, PANC-1, 48 h): 0.161 µM | CC50 (PANC-1; Homo sapiens, PANC-1, 48 h, read-out: LC50 PANC-1, SRB assay, 48 hours exposure): 28.6 µM | TGI PANC-1 (PANC-1; SRB assay, 48 hours exposure): 2.73E−06 | GI50 (SK-MEL-28): 0.0925 µM | CC50 (SK-MEL-28; [9]): 1.37 µM | TGI MEL-28 (SK-MEL-28): 2.69E−07 | GI50 (A-549): 0.0999 µM | CC50 (A-549; [10]): 4.57 µM | TGI A-549 (A-549): 3.68E−07 | CC50 at 48 h [1, 11]: 0.143 µM | GI50 (HMEC1): 0.0164 µM | TGI H-MEC-1 (HMEC1; in M (unit assumed)): 1.54E−08

COc1ccc(CNc2ccnc3c2c(-c2ccnc(OC)n2)c2ccnc(NCc4ccc(OC)cc4)n23)cc1 [Compound 87]
GI50 (SK-OV-3): 17.3 µM | CC50 (SK-OV-3; [2]): 17.3 µM | TGI SKOV-3 (SK-OV-3): 1.73E−05 | GI50 (K-562): 17.3 µM | CC50 (K-562; [3]): 17.3 µM | TGI K-562 (K-562): 1.73E−05 | GI50 (IGROV-1): 17.3 µM | CC50 (IGROV-1; [4]): 17.3 µM | TGI IGROV (IGROV-1): 1.73E−05 | GI50 (DU-145): 18.3 µM | CC50 (DU-145; [5]): 17.3 µM | TGI DU-145 (DU-145): 1.73E−05 | GI50 (IGROV-ET): 17.3 µM | CC50 (IGROV-ET; [6]): 17.3 µM | TGI IGROV-ET (IGROV-ET): 1.73E−05 | GI50 (SK-BR-3): 17.3 µM | CC50 (SK-BR-3; [7]): 17.3 µM | TGI SK-BR-3 (SK-BR-3): 1.73E−05 | GI50 (LNCaP): 17.3 µM | CC50 (LNCaP; [8]): 17.3 µM | TGI LN-caP (LNCaP): 1.73E−05 | GI50 (PANC-1; Homo sapiens, PANC-1, 48 h): 17.3 µM | GI50 (SK-MEL-28): 17.3 µM | CC50 (SK-MEL-28; [9]): 17.3 µM | TGI MEL-28 (SK-MEL-28): 1.73E−05 | GI50 (A-549): 17.3 µM | CC50 (A-549; [10]): 17.3 µM | TGI A-549 (A-549): 1.73E−05 | CC50 at 48 h [1, 11]: 17.3 µM | GI50 (HMEC1): 7.3 µM | TGI H-MEC-1 (HMEC1; in M (unit assumed)): 1.73E−05

Nc1nccc(-c2c3c(O)ccnc3n3c(N)nccc23)n1 [Variolin B1, variolin B, reference compound]
GI50 (SK-OV-3): 1.21 µM | CC50 (SK-OV-3; read-out: LC50 SKOV-3): 34.1 µM | TGI SKOV-3 (SK-OV-3): 3.32E−06 | GI50 (K-562): 1.55 µM | CC50 (K-562; read-out: LC50 K-562): 34.1 µM | TGI K-562 (K-562): 3.92E−06 | GI50 (IGROV-1): 1.14 µM | CC50 (IGROV-1; read-out: LC50 IGROV): 34.1 µM | TGI IGROV (IGROV-1): 2.90E−06 | GI50 (DU-145): 0.893 µM | CC50 (DU-145; read-out: LC50 DU-145): 19.9 µM | TGI DU-145 (DU-145): 2.10E−06 | GI50 (IGROV-ET): 1.28 µM | CC50 (IGROV-ET; read-out: LC50 IGROV-ET): 34.1 µM | TGI IGROV-ET (IGROV-ET): 2.82E−06 | GI50 (SK-BR-3): 0.848 µM | CC50 (SK-BR-3; read-out: LC50 SK-BR-3): 27.7 µM | TGI SK-BR-3 (SK-BR-3): 2.31E−06 | GI50 (LNCaP): 0.0539 µM | CC50 (LNCaP; read-out: LC50 LN-caP): 1.41 µM | TGI LN-caP (LNCaP): 2.10E−06 | GI50 (PANC-1; Homo sapiens, PANC-1, 48 h): 1.68 µM | GI50 (SK-MEL-28): 1.2 µM | CC50 (SK-MEL-28; read-out: LC50 MEL-28): 2.8 µM | TGI MEL-28 (SK-MEL-28): 2.13E−06 | GI50 (A-549): 0.985 µM | CC50 (A-549; read-out: LC50 A-549): 3.41 µM | TGI A-549 (A-549): 2.21E−06 | CC50 at 48 h [1]: 6.07 µM | GI50 (HMEC1): 0.273 µM | TGI H-MEC-1 (HMEC1): 7.50E−07
